Test results: patent publication US20240279202A1 (NURIX THERAPEUTICS, INC., priority 2021, published 2024)
Counter-ions that a name gives are not always drawn.

Biological target: T1, ITK (Homo sapiens, UniProt Q08881)
T1 sequence (Q08881 1-620): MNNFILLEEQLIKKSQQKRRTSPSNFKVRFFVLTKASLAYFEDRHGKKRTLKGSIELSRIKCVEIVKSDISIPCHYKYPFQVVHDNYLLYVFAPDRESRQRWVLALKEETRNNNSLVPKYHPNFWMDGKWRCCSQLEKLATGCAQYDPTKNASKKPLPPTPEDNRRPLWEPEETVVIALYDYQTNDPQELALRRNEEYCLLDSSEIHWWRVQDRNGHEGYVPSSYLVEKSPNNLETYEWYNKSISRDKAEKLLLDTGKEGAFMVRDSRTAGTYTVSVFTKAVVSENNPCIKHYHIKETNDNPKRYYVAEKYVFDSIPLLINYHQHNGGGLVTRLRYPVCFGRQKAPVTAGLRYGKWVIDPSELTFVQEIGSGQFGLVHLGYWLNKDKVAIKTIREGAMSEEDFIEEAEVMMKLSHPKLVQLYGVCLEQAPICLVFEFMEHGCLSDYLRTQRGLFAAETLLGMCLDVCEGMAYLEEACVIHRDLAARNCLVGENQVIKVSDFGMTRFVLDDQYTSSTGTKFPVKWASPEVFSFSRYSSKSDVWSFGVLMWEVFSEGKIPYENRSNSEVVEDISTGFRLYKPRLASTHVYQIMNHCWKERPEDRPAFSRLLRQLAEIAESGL
Experiment: ITK degradation HiBiT assay
Format: cell-based
Parameters: expressed in transfected cells; host or cells: Molt4 (ATCC CRL-1552), monoclonal clone 1C10, engineered to carry the HiBiT tag
Conditions: 4 hrs; for Dmax: MOLT-4, C-terminal HiBiT-tagged Molt4 cells
How it was run: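 C-terminal HiBiT-tagged Molt4 cells (clone 1C10) treated 4 h at 32° C with an 11-point, 5-fold compound dilution series (0.5% DMSO). HiBiT lytic detection with LgBiT then luminescence read; % ITK remaining versus concentration fit by four-parameter variable-slope model to give DC50 and Dmax.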

[1] = C-terminal HiBiT-tagged Molt4 cells

Structure (SMILES)	DC50 [1]	Dmax	HiBiT DMax (%) [1]
CN(C(=O)CC1CCN(CC2CCN(c3ccc(C(=O)NC4CCC(=O)NC4=O)nc3)CC2)CC1)c1ccc2cc(-c3n[nH]c4c3C[C@@H]3C(F)(F)[C@]3(C)C4)[nH]c2c1 (stereo partly drawn) [Compound 75, 5-(4-((4-(2-((2-((4aS,5aR)-5,5-difluoro-5a-methyl-1,4,4a,5,5a,6-hexahydrocyclopropa[f]indazol-3-yl)-1H-indol-6-yl)(methyl)amino)-2-oxoethyl)piperidin-1-yl)methyl)piperidin-1-yl)-N-(2,6-dioxopiperidin-3-yl)picolinamide]	0.5 nM	83%	–
C[C@@H](C(=O)N(C)c1ccc2cc(-c3n[nH]c4c3C[C@@H]3C(F)(F)[C@]3(C)C4)[nH]c2c1)N1CCN(CC2CCN(c3cccc4c3n(C)c(=O)n4C3CCC(=O)NC3=O)CC2)CC1 (stereo partly drawn) [Compound 65, (2S)—N-(2-((4aS,5aR)-5,5-difluoro-5a-methyl-1,4,4a,5,5a,6-hexahydrocyclopropa[f]indazol-3-yl)-1H-indol-6-yl)-2-(4-((1-(1-(2,6-dioxopiperidin-3-yl)-3-methyl-2-oxo-2,3-dihydro-1H-benzo[d]imidazol-4-yl)piperidin-4-yl)methyl)piperazin-1-yl)-N-methylpropanamide]	0.35 nM	80%	–
CN(C(=O)CCC1CCN(c2ccc3c(c2)C(=O)N(C2CCC(=O)NC2=O)C3=O)C1)c1ccc2cc(-c3n[nH]c4c3CCC(C)(C)C4)[nH]c2c1 (centres unmarked) [Compound 1, N-(2-(6,6-dimethyl-4,5,6,7-tetrahydro-1H-indazol-3-yl)-1H-indol-6-yl)-3-(1-(2-(2,6-dioxopiperidin-3-yl)-1,3-dioxoisoindolin-5-yl)pyrrolidin-3-yl)-N-methylpropanamide]	10.4 nM	88%	–
C[C@@H](C(=O)N(C)c1ccc2cc(-c3n[nH]c4c3CCC(C)(C)C4)[nH]c2c1)N1CCN(CC2CCN(c3ccc(N4CCC(=O)NC4=O)cn3)CC2)CC1 [Compound 11, (S)—N-(2-(6,6-dimethyl-4,5,6,7-tetrahydro-1H-indazol-3-yl)-1H-indol-6-yl)-2-(4-((1-(5-(2,4-dioxotetrahydropyrimidin-1(2H)-yl)pyridin-2-yl)piperidin-4-yl)methyl)piperazin-1-yl)-N-methylpropanamide]	2 nM	–	–
C[C@@]12Cc3[nH]nc(-c4cc5ccc(N6CCC7(CCN(Cc8ccc9c(c8)C(=O)N(C8CCC(=O)NC8=O)C9=O)CC7)C6=O)cc5[nH]4)c3C[C@@H]1C2(F)F (stereo partly drawn) [Compound 15, 5-((2-(2-((4aS,5aR)-5,5-difluoro-5a-methyl-1,4,4a,5,5a,6-hexahydrocyclopropa[f]indazol-3-yl)-1H-indol-6-yl)-1-oxo-2,8-diazaspiro[4.5]decan-8-yl)methyl)-2-(2,6-dioxopiperidin-3-yl)isoindoline-1,3-dione hydrochloride]	0.35 nM	93%	–
CN(C(=O)CCC1CCN(c2ccc(C3CCC(=O)NC3=O)cn2)CC1)c1ccc2cc(-c3n[nH]c4c3C[C@@H]3C(F)(F)[C@]3(C)C4)[nH]c2c1 (stereo partly drawn) [Compound 21, N-(2-((4aS,5aR)-5,5-difluoro-5a-methyl-1,4,4a,5,5a,6-hexahydrocyclopropa[f]indazol-3-yl)-1H-indol-6-yl)-3-(1-(5-(2,6-dioxopiperidin-3-yl)pyridin-2-yl)piperidin-4-yl)-N-methylpropanamide]	0.01 nM	–	–
C[C@@H](C(=O)N(C)c1ccc2cc(-c3n[nH]c4c3CCC(C)(C)C4)[nH]c2c1)N1CCN(C[C@H]2CCN(c3ccc4c(c3)CN(C3CCC(=O)NC3=O)C4=O)C2)CC1 (stereo partly drawn) [Compound 12, (2S)—N-(2-(6,6-dimethyl-4,5,6,7-tetrahydro-1H-indazol-3-yl)-1H-indol-6-yl)-2-(4-(((3R)-1-(2-(2,6-dioxopiperidin-3-yl)-1-oxoisoindolin-5-yl)pyrrolidin-3-yl)methyl)piperazin-1-yl)-N-methylpropanamide]	0.29 nM	86%	–
C[C@@]12Cc3[nH]nc(-c4cc5ccc(N6CCC7(CCN(CC8CCN(c9ccc(C%10CCC(=O)NC%10=O)cn9)CC8)CC7)C6=O)cc5[nH]4)c3C[C@@H]1C2(F)F (stereo partly drawn) [Compound 19, 3-(6-(4-((2-(2-((4aS,5aR)-5,5-difluoro-5a-methyl-1,4,4a,5,5a,6-hexahydrocyclopropa[f]indazol-3-yl)-1H-indol-6-yl)-1-oxo-2,8-diazaspiro[4.5]decan-8-yl)methyl)piperidin-1-yl)pyridin-3-yl)piperidine-2,6-dione]	0.27 nM	–	–
C[C@@H](C(=O)N(C)c1ccc2cc(-c3n[nH]c4c3CCC(C)(C)C4)[nH]c2c1)N1CCN(C(=O)C2CN(C3CCN(c4ccc5c(c4)C(=O)N(C4CCC(=O)NC4=O)C5=O)CC3)C2)CC1 (stereo partly drawn) [Compound 34, (2S)—N-(2-(6,6-dimethyl-4,5,6,7-tetrahydro-1H-indazol-3-yl)-1H-indol-6-yl)-2-(4-(1-(1-(2-(2,6-dioxopiperidin-3-yl)-1,3-dioxoisoindolin-5-yl)piperidin-4-yl)azetidine-3-carbonyl)piperazin-1-yl)-N-methylpropanamide]	1.8 nM	89%	–
CN(C(=O)CC[C@H]1CCN(c2ccc3c(c2)C(=O)N(C2CCC(=O)NC2=O)C3=O)C1)c1ccc2cc(-c3n[nH]c4c3C[C@@H]3C(F)(F)[C@]3(C)C4)[nH]c2c1 (stereo in doubt) [Compound 67, N-(2-((4aS,5aR)-5,5-difluoro-5a-methyl-1,4,4a,5,5a,6-hexahydrocyclopropafindazol-3-yl)-1H-indol-6-yl)-3-((3R)-1-(2-(2,6-dioxopiperidin-3-yl)-1,3-dioxoisoindolin-5-yl)pyrrolidin-3-yl)-N-methylpropanamide]	2.3 nM	75%	–
CN(C(=O)CC[C@H]1CCN(c2ccc3c(c2)C(=O)N(C2CCC(=O)NC2=O)C3=O)C1)c1ccc2cc(-c3n[nH]c4c3C[C@@H]3C(F)(F)[C@]3(C)C4)[nH]c2c1 (stereo in doubt) [Compound 68]	0.5 nM	–	78%
Cn1c(=O)n(C2CCC(=O)NC2=O)c2ccc(N3CCC(CN4CCC5(CC4)CCN(c4ccc6cc(-c7n[nH]c8c7CCC(C)(C)C8)[nH]c6c4)C5=O)CC3)cc21 (centres unmarked) [Compound 14, 3-(5-(4-((2-(2-(6,6-dimethyl-4,5,6,7-tetrahydro-1H-indazol-3-yl)-1H-indol-6-yl)-1-oxo-2,8-diazaspiro[4.5]decan-8-yl)methyl)piperidin-1-yl)-3-methyl-2-oxo-2,3-dihydro-1H-benzo[d]imidazol-1-yl)piperidine-2,6-dione]	0.16 nM	89%	–
C[C@@H](C(=O)N(C)c1ccc2cc(-c3n[nH]c4c3C[C@@H]3C(F)(F)[C@]3(C)C4)[nH]c2c1)N1CCN(CC2CCN(c3ccc(C(=O)NC4CCC(=O)NC4=O)nc3)CC2)CC1 (stereo partly drawn) [Compound 66, 5-(4-((4-((S)-1-((2-((4aS,5aR)-5,5-difluoro-5a-methyl-1,4,4a,5,5a,6-hexahydrocyclopropa[f]indazol-3-yl)-1H-indol-6-yl)(methyl)amino)-1-oxopropan-2-yl)piperazin-1-yl)methyl)piperidin-1-yl)-N-(2,6-dioxopiperidin-3-yl)picolinamide]	0.55 nM	71%	–
